Experimental data as given in patent US12648565B2, “Post-emergence herbicide” (Belvedere Foliar LLC, priority 2017, dated 2026).

Legend:
[1] = test system: Pasture Blend 1, Pasture blend 2, Cineraria meritima (Dusty miller) (plants 21, 22, 10); assay: Trial 14: greenhouse foliar spray trial, visual toxicity scoring; format: in vivo, pasture seed blend
Excerpt: (§1) The majority of greenhouse trials conducted to date have been of one basic design: • 1. Samples of different species of flowering plant and grass are exposed to different formulations of the herbicide in accordance with some embodiments, prepared in a range of concentrations, in combination with potentially suitable adjuvants, and applied as an aquatic spray. Experimental plants are purchased either from a local nursery, grown from ornamental and weed seed packs, or grown from seeds of a custom blend prepared specifically for this project and listed in Table 4B. The experimental variable in a typical test is the molar mass concentration of the nutrient salt being examined. Other factors including pH, nitrogen source, and the amount and composition of surfactant or penetrant are constants within a trial except when one of these factors is itself the variable of interest in the experiment. Experiments are controlled unless irrelevant for a particular test. • 2. Standard techniques to reduce experimental error are employed including use of controls; standard spray application pressures; standardized growing conditions, growing medium, containers, and source irrigation water; and preparation and shipping of samples for laboratory analysis according to required standard laboratory protocols. • 3. Plants are sprayed with the experimental formulation, always in late afternoon (greenhouse tests), or in early morning (field tests), are observed over as many as several weeks, and their visible state of decline scored by the same examiner on a 9 points system relying on visual effects of toxicity. (Table 5.)
(§2) Scores of half-value are also used: 0, 0.5, 1.0, 1.5, 2.0, 2.5, etc. • 4. The estimated successful herbicidal effectiveness of a formulation was determined from a combination of averaged and cumulative scores of 4.0 to 5.0 observed approximately 14 days or longer after application: “All leaves and flowers if present desiccated, browned, wilted, and stems or blades lodged; no green tissue visible; no regrowth from roots visible.”
In Trial 14, the herbicides comprised K-acetate; molarity 2.0, 1.5, 1.0; pH approx. 5.3 by glacial acetic acid, and a proprietary adjuvant mix. Ref. Lab-1, p. 113. Test plants (ref. Tables 4A and 4B): P1, P2, P10.

[2] = test system: Pasture Blend 2, Gazania rigens, Fragaria x ananassa (Strawberry), Nemophila menziesii discoidalis (plants 22, 15, 13, 19); assay: Trial 22: greenhouse foliar spray trial, visual toxicity scoring; format: in vivo
Excerpt: as §1, §2
In Trial 22, the herbicides comprised K-acetate; molarity range 1.0-2.0; pH approx. 5.0 with succinic acid; proprietary adjuvant mix.

[3] = test system: Pasture Blend 2, Gazania rigens, Fragraria x ananassa (Strawberry), Nemophila menziesii discoidalis (plants 22, 15, 13, 19); assay: Trial 25: greenhouse foliar spray trial at four acidities, visual toxicity scoring; format: in vivo; details: molarity 1.5, test conclusion on Day 5
Excerpt: as §1, with “Standard techniques to reduce experimental error are employed including use of controls; standard spray application pressures; standardized growing conditions, growing medium, containers, and source irrigation water; and preparation and shipping of samples for laboratory analysis according to required standard laboratory protocols. • 3.” left out, “(Table 5.)” left out

[4] = test system: Pasture Blend 2, Allium ampeloprasum (Leek), Brassica oleracea (Kale), Lantana camara, Pisum sativum var. saccharatum (Snow pea) (P2, 1, 5, 16, 23); assay: Trial 31A: greenhouse foliar spray trial, adjuvant mix A, visual toxicity scoring; format: in vivo; details: 1.0M; by Day 20
Excerpt: (§3) The plants were numbered 22, 1, 5, 16, and 23, corresponding to Pasture blend 2, Brassica oleracea (var. Kale “Dinosaur”), Lantana camara (White Lantana), and Pisum sativum var. saccharatum (Snow pea) (Refer to Tables 4A and 4B for plant species identification). The only difference between Trials 31A and 31B was the composition of the proprietary adjuvant mix employed for each trial. The adjuvants for the “A” series were urea and […] silicone surfactant (Loveland Products). The adjuvants for the “B” series were urea and LI700 penetrant (Loveland Products). Solutions 1 A & B (S-1A, S-1B) correspond to a 2.0 molar solution of potassium acetate, pH 5.01 achieved with citric acid. S-2 is a similar solution of 1.5 molarity, pH 5.00. S-3 is a similar solution of 1.0 molarity, pH 4.97. (Refer to Tables 6A and 6B for trial solutions, details and results).
(§4) The majority of greenhouse trials conducted to date have been of one basic design: • 1. […] Plants are sprayed with the experimental formulation, always in late afternoon (greenhouse tests), or in early morning (field tests), are observed over as many as several weeks, and their visible state of decline scored by the same examiner on a 9 points system relying on visual effects of toxicity. […]

[5] = test system: Pasture Blend 2, Allium ampeloprasum (Leek), Brassica oleracea (Kale), Lantana camara, Pisum sativum var. saccharatum (Snow pea) (P2, 1, 5, 16, 23); assay: Trial 31B: greenhouse foliar spray trial, adjuvant mix B, visual toxicity scoring; format: in vivo; details: 2.0 M; day 4
Excerpt: as §3, §4

[6] = test system: Brassica oleracea (Kale), Dichondra repens, Fragaria x ananassa (Strawberry), Pasture Blend 2, Rosemarina officinalis (Rosemary) (5, 11b, 13, 22, 23b); assay: Trial 47: greenhouse foliar spray trial, visual toxicity scoring; format: in vivo
Excerpt: as §1, §2
In Trial 47, the herbicides comprised K-acetate; molarity range from 1.0-2.5; pH 5.03-5.05 with glacial acetic acid; proprietary adjuvant mix. Ref. Lab-2, p. 42. Test plants (ref Tables 4A and 4B):5, 11b, 13, 22, 23b
S-1 corresponds to the highest concentration of active nutrient tested, S-4 corresponds to the lowest concentration of nutrient tested, and […] represent intermediate levels. The data are graphically presented below in FIG. 8.

mature field weeds = assay: Trial 50: field test, visual toxicity scoring; format: in vivo
Excerpt: as §1, §2
In Trial 50, the herbicides comprised K-acetate; molarity range from 1.5, 2.0 and 2.5; pH 5.0 with citric acid; proprietary adjuvant mix. Ref. Lab-2, p. […] Test plants were mature field weeds.
S-1 corresponds to the highest concentration of active nutrient tested, S-3 corresponds to the lowest concentration of nutrient tested, and S-2 represent an intermediate level. The data are graphically presented below in FIG. 11.

[7] = test system: all weeds: Common purslane, Barnyard grass, Feather fingergrass; details: Day 4
Excerpt: as §1, with “Standard techniques to reduce experimental error are employed including use of controls; standard spray application pressures; standardized growing conditions, growing medium, containers, and source irrigation water; and preparation and shipping of samples for laboratory analysis according to required standard laboratory protocols. • 3.” left out, “(Table 5.)” left out

[8] = test system: Viola x wittockiana (Viola), Antirrhinum majus (Snapdragon), Cineraria meritima (Dusty miller), Cymbalaria aequitriloba (Cymbalaria); assay: Trial 56: greenhouse foliar spray trial, visual toxicity scoring; format: in vivo; details: for phytotoxic control (in words): 1.5 molarity
Excerpt: as §1, §2

CC(=O)[O-].[K+] [K-acetate, Potassium acetate]
average toxicity score ([1]; 1.0M, Day 7 (so in the source)): 4.3
average toxicity score ([1]; 1.0M, Day 11): 4.0
average toxicity score ([1]; 2.0M, Day 1): 4.0
average toxicity score ([1]; 2.0M, Day 11): 4.7
average toxicity score ([1]; […], Day 1): 4
average toxicity score ([1]; […], Day 11): 4.8
phytotoxic results (in words) ([2]; 1.0M, Days 3-7): strong phytotoxic results
average toxicity score ([2]; 2.0M, Day 5): 4.3
average toxicity score ([2]; 2.0M, Day 7): 4.4
average toxicity score ([2]; […], Day 5): 4.1
average toxicity score ([2]; […], Day 7): 4.1
phytotoxic effect (in words) ([3]; pH 4.3): severe-to-fatal
phytotoxic effect (in words) ([3]; pH 5.0): severe-to-fatal
average toxicity score [4]: 4.4
toxicity level (in words) [5]: severe-to-fatal
average toxicity score ([6]; 1.0M, second value listed (days not given)): 4.4
average toxicity score ([6]; 1.0M, third value listed (days not given)): 4.8
average toxicity score ([6]; 2.5M, Day 5): 4.5
average toxicity score ([6]; 2.5M, Day 9): 4.8
average toxicity score ([6]; 2.5M, Day 14): 4.9
average toxicity score ([6]; […] (so in the source), Day 5): 4.0
average toxicity score ([6]; […] (so in the source), Day 9): 4.8
average toxicity score ([6]; […] (so in the source), Day 14): 5.0
average toxicity score (mature field weeds; 2.0M, Day 3): 3.6
average toxicity score (mature field weeds; 2.0M, Day 10): 3.6
average toxicity score (mature field weeds; 2.5M, Day 3): 2.8
average toxicity score (mature field weeds; 2.5M, Day 10): 2.8
phytotoxicity (in words) (mature field weeds; 2.5 molarity): less phytotoxicity than lower molarities
phytotoxic control (in words) [7]: strong to excellent phytotoxic control
appearance of treated plants ([8]; 1.5 molar, last observed on Day 16): appeared dead with no regrowth
phytotoxic control (in words) ([8]; Day 3): strong phytotoxic control
phytotoxic control (in words) ([8]; Day 4 through Day 15): excellent phytotoxic control
